In PMC10301603, “Potent and Selective Benzothiazole-Based Antimitotics with Improved Water Solubility: Design, Synthesis, and Evaluation as Novel Anticancer Agents” (Pharmaceutics, 2023):
pIC50: −log10 of the molar value. ≈ marks a conversion by molar mass, not a printed value. Where two headings read alike, the source gives them in different places.

Experiments:
[1] = Aqueous solubility, shake-flask method; format: physicochemical; conditions: pH 7.0 buffer, thermodynamic from solid, shaking flask, buffered media at pH 7.0, mean of three
Method: The aqueous solubility of compounds was measured in a Helios Alfa Spectrophotometer. Calibration lines at the maximum wavelength of absorbance were determined for each compound. Then, following the shake-flask method, a suspension of 5 mg of each compound in 500 µL in pH 7.0 buffer was stirred for 72 h at room temperature. The mixture was then filtrated over a […] filter to remove the insoluble fraction. The concentration of the compound in the resulting saturated solution was determined via UV absorbance measurement and interpolation in the calibration line. The aqueous solubility values are given as the average of three independent measurements.

[2] = tested on: bovine brain tubulin; assay: Tubulin polymerization inhibition (turbidimetry); format: biochemical; conditions: for pIC50: concentration inhibiting 50% of microtubular protein polymerization in vitro, read-out: TPI IC50; for % TPI: compounds tested at 10 µM, with respect to the negative control
Method: Microtubular protein was isolated from calf brain following the modified Shelanski method, based on temperature-dependent assembly/disassembly of tubulin [45]. The protein was stored at −80 °C, and its concentration was determined using the Bradford method before each use. Tubulin polymerization, which occurs when heating a buffered tubulin sample from 4 °C to 37 °C, is accompanied by an increase in the absorbance (at 450 nm) of the sample that was monitored by a Helios α spectrophotometer. […] Then, the temperature was adjusted to 4 °C, and the temperature being shifted to 37 °C allowed for the assembly process of tubulin. The turbidity caused by tubulin polymerization was measured by the increased absorbance at 450 nm. The increase in absorbance obtained for the control sample (without the ligand), which we considered to be 100% tubulin polymerization (0% inhibition), compared with the increase in absorbance determined for the sample containing ligands yielded the degree of tubulin polymerization inhibition (TPI), which is expressed as a percentage value. For the compounds displaying TPI values over 50% at 10 µM, the IC50 value for TPI was calculated. Measurements were performed in triplicate in two independent experiments using microtubular protein from different preparations.

[3] = cited from earlier work
[4] = tested on: HT-29 cells; assay: Cell growth inhibition assay (MTT); format: cell-based, human; conditions: Homo sapiens, HT-29, 72 h after drug exposure
Method: (§1) The cell lines were obtained from ATTC (Manassas, VA, USA). HeLa (human cervix epithelioid carcinoma), MCF7 (human breast adenocarcinoma), HepG2 (human hepatocellular carcinoma), U87 MG (human glioblastoma), T98G (human glioblastoma), GL261 (murine glioma), LNCaP (human prostate cancer), PC-3 (human prostate cancer), and HEK-293 (human embryonic kidney) were grown in Dulbecco’s modified Eagle’s medium (DMEM, Gibco, Waltham, MA, USA), supplemented with 10% (v/v) heat-inactivated fetal bovine serum (HIFBS, Sigma-Aldrich, St. Louis, MO, USA)), 2 mM L-glutamine, 100 μg/mL streptomycin, and 100 units/mL penicillin (Gibco, Waltham, MA, USA) at 37 °C in saturated humidity atmosphere containing 95% air and 5% CO2. Cell line HT-29 (human colon carcinoma) was grown in Roswell Park Memorial Institute (RPMI) 1640 medium (Gibco, Whaltman, MA, USA) supplemented with 10% HIFBS, 100 μg/mL streptomycin, and 100 units/mL penicillin (Gibco, Whaltman, MA, USA) at 37 °C in humidified 95% air and 5% CO2 atmosphere. MycoAlert kit (Lonza, Norwest, Australia) was used to routinely check the presence of mycoplasma, and only mycoplasma-free cells were employed in the experiments.
(§2) Cells were plated in 96-well plates (100 µL/well) at the following concentrations: 30,000 cells/mL (HepG2, U87 MG, T98G, C6, LNCaP, PC3, and HT-29 cells) or 15,000 cells/mL (HeLa and MCF-7 cells). Previous experiments were performed to choose the optimal cell concentration (70–80% confluence) and avoid the formation of cell aggregates. Cells were incubated in complete DMEM or RPMI 1640 medium (see above) at 37 °C and 5% CO2 atmosphere for 24 h to allow for cell attachment to the plate. Then, every compound was added (10 µL/well) to a final concentration of 10 µM. Non-treated cells were used as negative controls. The antiproliferative activity of compounds was measured 72 h after the treatments using the MTT reagent (3-[4,5-dimethylthiazol-2-yl]-2,5-diphenyltetrazolium bromide), (MTT Thiazolyl Blue Tetrazolium Bromide, Sigma-Aldrich, St. Louis, MO, USA) dissolved in PBS at 5 mg/mL. Compounds showing antiproliferative effects at 10 µM were selected to determine their IC50 value. For that purpose, compounds were used at different concentrations ranging from 10^−10 to 10^−2 M. Measurements were performed in triplicate, and each experiment was repeated three times. The IC50 value was determined for every compound using Origin software (OriginLab, Washington, USA). To study the sensitivity to MDR efflux pumps of compounds, the IC50 values were determined by following the same procedure but in the presence of verapamil (final concentration of 10 µM).

[5] = tested on: HeLa cells; assay: Cell growth inhibition assay (MTT); format: cell-based, human; conditions: Homo sapiens, HeLa, 72 h after drug exposure
Method: as §1, §2

[6] = tested on: HepG2 cells; assay: Cell growth inhibition assay (MTT); format: cell-based, human; conditions: Homo sapiens, HepG2, 72 h after drug exposure
Method: as §1, §2

[7] = tested on: LNCaP cells; assay: Cell growth inhibition assay (MTT); format: cell-based, human; conditions: Homo sapiens, LNCaP, 72 h after drug exposure
Method: as §1, §2

[8] = tested on: MCF7 cells; assay: Cell growth inhibition assay (MTT); format: cell-based, human; conditions: Homo sapiens, MCF7; MTT, 72 h after drug exposure
Method: as §1, §2

[9] = tested on: PC-3 cells; assay: Cell growth inhibition assay (MTT); format: cell-based, human; conditions: Homo sapiens, PC-3, 72 h after drug exposure
Method: as §1, §2

[10] = tested on: T98G cells; assay: Cell growth inhibition assay (MTT); format: cell-based, human; conditions: Homo sapiens, T98G, 72 h after drug exposure
Method: as §1, §2

[11] = tested on: U87MG cells; assay: Cell growth inhibition assay (MTT); format: cell-based, human; conditions: Homo sapiens, U-87 MG; MTT, 72 h after drug exposure
Method: as §1, §2

[12] = tested on: GL261 cells; assay: Cell growth inhibition assay (MTT); format: cell-based, murine; conditions: Mus musculus, GL261, 72 h after drug exposure
Method: as §1, §2

[13] = tested on: HEK-293 cells; assay: Cell growth inhibition assay (MTT), non-tumorigenic cells; format: cell-based, human; conditions: Homo sapiens, HEK293, 72 h after drug exposure, non-tumorigenic cell line
Method: as §1, §2

[14] = tested on: HT-29 cells; assay: Cell growth inhibition (MTT) in the presence of 10 µM verapamil (sensitivity to MDR efflux pumps); format: cell-based, human; conditions: 10 µM verapamil (P-gp/MDR1 inhibitor)
Method: as §2

[15] = tested on: tumor cell lines; assay: Cell growth inhibition assay (MTT), summary statements over several cell lines; format: cell-based; conditions: read-out: antiproliferative IC50
Method: as §2

[16] = tested on: HeLa cells; set-up: method as in PMID 25970265; conditions: read-out: IC50 cell proliferation of HeLa cells; cited from earlier work
[17] = the rest of the tumor cell lines (other than HeLa, HepG2, MCF7, U87MG)

solubility at 72 h ([1]; pH 7, aqueous buffer) [µg/mL]	pIC50 [2]	pIC50 [4]	pIC50 [5]	pIC50 [6]	pIC50 [7]	pIC50 [8]	pIC50 [9]	pIC50 [11]	pIC50 [14]	pIC50 ([15]; HeLa, HepG2, MCF7, and U87MG)	pIC50 [15, 17]	Compound	pIC50 [10]	pIC50 [12]	pIC50 [13]	also measured
48 (≈ 177 µM)	< 5.00	5.45	5.75	5.62	5.82	5.82	5.68	5.79	5.46	~6.00	5.52 to 5.70	COc1ccc2nc(NCc3ccccn3)sc2c1 [Compound 1, 6-methoxy-N-(pyridin-2-ylmethyl)benzo[d]thiazol-2-amine]	5.62	5.66	< 5.00	–
57 (≈ 210 µM)	< 5.00	5.65	5.90	5.92	5.84	5.93	5.81	5.88	5.67	~6.00	5.52 to 5.70	COc1ccc2nc(NCc3cccnc3)sc2c1 [Compound 2, 6-methoxy-N-(pyridin-3-ylmethyl)benzo[d]thiazol-2-amine]	5.68	5.72	< 5.00	–
55 (≈ 203 µM)	< 5.00	5.47	5.84	5.91	5.70	5.76	5.48	5.82	5.49	~6.00	5.52 to 5.70	COc1ccc2nc(NCc3ccncc3)sc2c1 [Compound 3, 6-methoxy-N-(pyridin-4-ylmethyl)benzo[d]thiazol-2-amine]	5.64	5.69	< 5.00	–
98 (≈ 286 µM)	5.38	6.52	6.56	6.70	6.61	6.60	6.48	7.21	6.50	–	–	CCNC(=O)N(Cc1ccccn1)c1nc2ccc(OC)cc2s1 [Compound 7, 3-ethyl-1-(6-methoxybenzo[d]thiazol-2-yl)-1-(pyridin-2-ylmethyl)urea]	6.90	7.02	5.06	% TPI [2]: 87%; pIC50 ([15]; the rest of the cell lines (other than glioblastoma U87MG and GL261)): 6.52 to 7.00
90 (≈ 301 µM)	5.30	6.25	6.48	6.49	6.50	6.66	6.37	6.60	6.27	–	–	COc1ccc2nc(N(C=O)Cc3ccccn3)sc2c1 [Compound 13, N-(6-methoxybenzo[d]thiazol-2-yl)-N-(pyridin-2-ylmethyl)formamide]	6.49	6.71	5.03	% TPI [2]: 80%; pIC50 ([15]; Homo sapiens, MCF7, glioblastoma and MCF7 cells): ~6.70; pIC50 ([15]; all the cell lines): 6.30 to 6.52
–	–	< 5.00	< 5.00	< 5.00	< 5.00	< 5.00	< 5.00	3.87	< 5.00	–	–	Cn1nnc2c(C(N)=O)ncn2c1=O [TMZ, temozolomide, reference compound]	3.62	3.75	< 5.00	pIC50 ([15]; glioblastoma cell lines): < 4.00

Compound	solubility at 72 h ([1]; pH 7, aqueous buffer) [µg/mL]	pIC50 [2]	pIC50 [4]	pIC50 [5]	pIC50 [6]	pIC50 [7]	pIC50 [8]	pIC50 [9]	pIC50 [11]	pIC50 [14]	pIC50 ([15]; HeLa, HepG2, MCF7, and U87MG)	pIC50 [15, 17]	pIC50 [10]	pIC50 [12]	pIC50 [13]	also measured
COc1ccc(/C=C\c2cc(OC)c(OC)c(OC)c2)cc1O [CA-4, combretastatin A-4, reference compound]	1.1 (≈ 3.48 µM)	[…]	–	–	–	–	–	–	–	–	–	–	–	–	–	water solubility [3]: 1 µg/mL (≈ 3.16 µM)
Cc1cc2nc(/C=C/c3cccnc3)sc2cc1C [MI181, reference compound]	–	5.34	–	–	–	–	–	–	–	–	–	–	–	–	–	solubility at 72 h ([1]; aqueous buffer): 5.6 µg/mL (≈ 21 µM); pIC50 [16]: 7.77
